One may read the inhibition as the drop in the measured response relative to a control, in per cent.

The results in this text go back to patent US9737515B2, “Compositions and methods for inhibiting tumor growth” (Consejo Nacional De Investigaciones Cientificas Y Tecnicas …, priority 2015, dated 2017).

Assay [1] relates to MCF-7 Tet-Off/ACSL4 cells. Briefly: BrdU incorporation cell proliferation assay in MCF-7 Tet-Off/ACSL4 cells. Type of assay: cell-based, human. As for the experimental part:
(§1) MCF-7 Tet-Off empty vector and MCF-7 Tet-Off/ACSL4 cells were plated at a density of 4000 cells/well in 96-well plates with 10% FBS-supplemented D-MEM medium and allowed to adhere overnight at 37° C. in a humidified, 5% CO2 atmosphere. The medium was then changed to serum-free medium. After 24 h, the cells were switched to 10% FBS-supplemented D-MEM medium and incubated with rapamycin (10 nM) and/or rosiglitazone (75 μM) for 96 h. Subsequently, cell proliferation was measured by the bromo-deoxyuridine (BrdU) incorporation assay.
Following the same procedure as that described in Example 1 above, the cells were switched to 10% FBS-supplemented D-MEM medium and incubated with rosiglitazone (10 or 25 μM) and/or 4-hydroxytamoxifen (4-OHTAM, 2.5 or 5.0 μM). Both rosiglitazone and 4-hydroxytamoxifen were tested alone at each of the concentrations used, and in all the possible combinations with each other (see FIG. 6A).
(In general: Uptake of a labelled nucleoside into DNA is a usual measure of proliferation.)

Assay [2] has as its system MCF-7 Tet-Off empty vector cells. In words: BrdU incorporation cell proliferation assay in MCF-7 Tet-Off empty vector cells. The class given is cell-based. The conditions noted are these: Homo sapiens, MCF7, 96 h, vs control cells. As for the experimental part:
as §1

With 4-hydroxytamoxifen [4-OHT], the “% inhibition of cell proliferation” value in assay [1] (4-OHT 2.5 μM, 96 h) amounted to 0.802%; in assay [1] (4-OHT 5 μM, 96 h), 3.464%. Moreover, in assay [1] (rosiglitazone 10 or 25 μM and/or 4-OHTAM 2.5 or 5 μM, 96 h, FIG. 6A), the “inhibition of cell proliferation (in words)” value is recorded as “did not produce a significant inhibition”.

For `CO[C@H]1C[C@@H]2CC[C@@H](C)[C@@](O)(O2)C(=O)C(=O)N2CCCC[C@H]2C(=O)O[C@H]([C@H](C)C[C@@H]2CC[C@@H](O)[C@H](OC)C2)CC(=O)[C@H](C)/C=C(\C)[C@@H](O)[C@@H](OC)C(=O)[C@H](C)C[C@H](C)/C=C/C=C/C=C/1C` [Rapamycin], the inhibition at 0.01 µM in assay [2] (Rapamycin 10 nM) is 12.2%; in assay [1] (Homo sapiens, MCF7, 96 h, Rapamycin 10 nM, vs control cells), 25%. In addition, the “% inhibition of cell proliferation” value in assay [1] (Rapamycin 10 nM, 96 h, vs control cells) is given as 22.159%.

Turning to `CN(CCOc1ccc(CC2SC(=O)NC2=O)cc1)c1ccccn1` (stereo not shown) [Rosiglitazone], the inhibition at 75 µM in assay [2] (Rosiglitazone 75 μM) turned out to be 2.81%; in assay [1] (Homo sapiens, MCF7, 96 h, Rosiglitazone 75 μM, vs control cells), 28.5%. Further, the inhibition at 10 µM in assay [1] (Homo sapiens, MCF7, 96 h, Rosiglitazone 10 μM) came out at 1.88%. For the same compound, the inhibition at 25 µM in assay [1] (Homo sapiens, MCF7, 96 h, Rosiglitazone 25 μM) is 7.97%.
